Reference: US10653674B2, “Multisubstituted aromatic compounds as inhibitors of thrombin” (VERSEON CORPORATION, priority 2010, dated 2020)

Columns and labels:
[1] = target: T1, Human thrombin (Homo sapiens, UniProt P00734); assay: Thrombin protease inhibition assay, chromogenic substrate S-2238; format: biochemical; conditions: inhibition of the protease activity of thrombin, Table A
T1 construct: purchased Haematologic Technologies Inc
Procedure: Compounds described herein can be assayed, by a variety of methods known in the art and described herein, for inhibition of biological activity, e.g., protease activity, of a variety of proteins, e.g., thrombin.
The thrombin activity reported herein (e.g., Table A) was obtained as follows. […] Thrombin was assayed in buffer containing 0.05 M Tris (pH 7.4), 0.015 M NaCl and 0.01% PEG-8000. The final concentration of enzyme used was 3 nM thrombin. […] All assays were performed in 96-well microtiter plates at room temperature (RT). […] Inhibitor IC50 values were determined by adding test compound as ten point, three-fold serial dilutions in buffer solution, as known in the art. The plate was read at 10 minutes after substrate addition. The IC50 was calculated by plotting the percent (%) inhibition against compound concentration and fitting the data to a constrained four parameter sigmoidal curve, as known in the art.

[2] = test system: malignant breast tumors; conditions: cited from earlier work

Compound: Fc1ccc(CNc2nc(-c3cccnc3)n[nH]2)cc1 [Cmpd 4]
- melting point: 185 to 186 °C

Compound: CN(C)C(=O)c1n[nH]c(C(=O)Nc2ccccc2Cl)n1 [Cmpd 186, 5-C-(2-chlorobenzene)-3-N,3-N-dimethyl-1H-1,2,4-triazole-3,5-dicarboxamide]
- IC50 [1]: > 1000 nM

Compound: CNC(=O)c1n[nH]c(C(=O)Nc2ccccc2Cl)n1 [Cmpd 187, 5-C-(2-chlorobenzene)-3-N-methyl-1H-1,2,4-triazole-3,5-dicarboxamide]
- IC50 [1]: > 1000 nM

Compound: CCCCCCOC(=O)NC(=N)c1ccc(NCc2nc3cc(C(=O)N(CCC(=O)OCC)c4ccccn4)ccc3n2C)cc1 [dabigatran etexilate]
- reduction in tumor volume ([2]; at 4 weeks, treated mice): 50%
- weight loss in treated mice ([2]; at 4 weeks): no weight loss
- reduction of tumor cells in the blood and liver micrometastases ([2]; mouse, in vivo): 50-60%
